Source: article PMC10734772 (Turkish Journal of Chemistry, 2021)

Key:
Assay type in all cases: cell-based
Jurkat = assay: MTT assay, Jurkat cells; details: Homo sapiens, 24 h, read-out: Viability rate
[1] = tested on: K562, Nalm-6, Molt-4, Reh, Jurkat, Hek293T cell lines; assay: MTT assay, overall judgement over all cell lines; details: overall judgement in words; for 6 and 10: on all cell lines, except Reh
In short: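 MTT viability assay run across a range of compound concentrations in leukemic lines, BCR-ABL positive K562 and BCR-ABL negative Nalm-6, Molt-4, Reh, Jurkat, plus non-leukemic Hek293T. Viability rate calculated per concentration.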

Molt-4 = assay: MTT assay, Molt-4 cells; details: Homo sapiens, MOLT-4, 24 h, read-out: Viability rate
[2] = MTT assay, Hek293T non-leukemic control cells; details: human, read-out: Viability rate
K562 = assay: MTT assay, K562 cells; details: Homo sapiens, 24 h, MTT, read-out: Viability rate
Reh = assay: MTT assay, Reh cells; details: Homo sapiens, 24 h, read-out: Viability rate
Nalm-6 = assay: MTT assay, Nalm-6 cells; details: Homo sapiens, 24 h

With `COc1ccc(CN2CCN(Cc3ccc(C(=O)Nc4ccc(C)c(Nc5nccc(C)n5)c4)cc3)CC2)c(OC)c1OC` [Compound 6] as the compound, how does the viability at 3 µM (Jurkat; 3 μM) read?
Its viability at 3 µM is 79.1 ± 0.02%.

And the viability at 5 µM (Jurkat; 5 μM)?
The viability at 5 µM was 69.8 ± 0.02%.

And the viability at 10 µM (Jurkat; 10 μM)?
The viability at 10 µM was 69.7 ± 0.05%.

What about the viability at 15 µM (Jurkat; 15 μM) of the same compound?
Its viability at 15 µM is 69.2 ± 0.02%.

And the viability at 20 µM (Jurkat; 20 μM)?
Its viability at 20 µM is 68.9 ± 0.01%.

And the viability at 30 µM (Jurkat; 30 μM)?
The viability at 30 µM was 68.8 ± 0.03%.

What about the viability at 50 µM (Jurkat; 50 μM) of the same compound?
The viability at 50 µM was 59.1 ± 0.03%.

And the viability at 70 µM (Jurkat; 70 μM)?
The viability at 70 µM was 47.8 ± 0.01%.

And the viability at 100 µM (Jurkat; 100 μM)?
The viability at 100 µM was 44 ± 0.01%.

What about the viability at 150 µM (Jurkat; 150 μM) of the same compound?
Its viability at 150 µM is 36.4 ± 0.01%.

What about the viability at 200 µM (Jurkat; 200 μM) of the same compound?
The viability at 200 µM was 35.3 ± 0.01%.

What about the “anticancer activity according to MTT assay results” value [1] of the same compound?
Its value is “high anticancer activity”.

What about the viability at 0.3 µM (Molt-4; Molt-4, 0.3 μM) of the same compound?
The viability at 0.3 µM was 84.4 ± 0.14%.

And the viability at 0.5 µM (Molt-4; Molt-4, 0.5 μM)?
Its viability at 0.5 µM is 79.7 ± 0.1%.

And the viability at 1 µM (Molt-4; Molt-4, 1 μM)?
Its viability at 1 µM is 78.7 ± 0.09%.

What about the viability at 3 µM (Molt-4; Molt-4, 3 μM) of the same compound?
The viability at 3 µM was 79.7 ± 0.18%.

And the viability at 5 µM (Molt-4; Molt-4, 5 μM)?
Its viability at 5 µM is 80.5 ± 0.16%.

And the viability at 10 µM (Molt-4; Molt-4, 10 μM)?
Its viability at 10 µM is 81.8 ± 0.07%.

And the viability at 15 µM (Molt-4; Molt-4, 15 μM)?
Its viability at 15 µM is 79.2 ± 0.15%.

What about the viability at 20 µM (Molt-4; Molt-4, 20 μM) of the same compound?
The viability at 20 µM was 76 ± 0.05%.

What about the viability at 30 µM (Molt-4; Molt-4, 30 μM) of the same compound?
Its viability at 30 µM is 75.4 ± 0.08%.

What about the viability at 50 µM (Molt-4; Molt-4, 50 μM) of the same compound?
The viability at 50 µM was 73.5 ± 0.04%.

And the viability at 70 µM (Molt-4; Molt-4, 70 μM)?
Its viability at 70 µM is 68.9 ± 0.06%.

And the viability at 100 µM (Molt-4; Molt-4, 100 μM)?
The viability at 100 µM was 61.7 ± 0.02%.

And the viability at 150 µM (Molt-4; Molt-4, 150 μM)?
The viability at 150 µM was 59.9 ± 0.05%.

And the viability at 200 µM (Molt-4; Molt-4, 200 μM)?
Its viability at 200 µM is 55.2 ± 0.04%.

And the viability at 24 h, 0.3 µM ([2]; Hek293T cells (non-leukemic control cell line), 0.3 μM)?
The viability at 24 h, 0.3 µM was 91.1 ± 0.15%.

What about the viability at 24 h, 0.5 µM ([2]; Hek293T cells (non-leukemic control cell line), 0.5 μM) of the same compound?
Its viability at 24 h, 0.5 µM is 90.8 ± 0.14%.

And the viability at 24 h, 3 µM ([2]; Hek293T cells (non-leukemic control cell line), 3 μM)?
The viability at 24 h, 3 µM was 81.4 ± 0.09%.

What about the viability at 24 h, 5 µM ([2]; Hek293T cells (non-leukemic control cell line), 5 μM) of the same compound?
The viability at 24 h, 5 µM was 78.5 ± 0.14%.

What about the viability at 24 h, 10 µM ([2]; Hek293T cells (non-leukemic control cell line), 10 μM) of the same compound?
The viability at 24 h, 10 µM was 78.2 ± 0.02%.

And the viability at 24 h, 15 µM ([2]; Hek293T cells (non-leukemic control cell line), 15 μM)?
The viability at 24 h, 15 µM was 70.6 ± 0.04%.

And the viability at 24 h, 20 µM ([2]; Hek293T cells (non-leukemic control cell line), 20 μM)?
Its viability at 24 h, 20 µM is 65.5 ± 0.1%.

And the viability at 24 h, 30 µM ([2]; Hek293T cells (non-leukemic control cell line), 30 μM)?
Its viability at 24 h, 30 µM is 57.4 ± 0.09%.

And the viability at 24 h, 50 µM ([2]; Hek293T cells (non-leukemic control cell line), 50 μM)?
The viability at 24 h, 50 µM was 50.7 ± 0.05%.

What about the viability at 24 h, 70 µM ([2]; Hek293T cells (non-leukemic control cell line), 70 μM) of the same compound?
The viability at 24 h, 70 µM was 48.8 ± 0.02%.

What about the viability at 24 h, 100 µM ([2]; Hek293T cells (non-leukemic control cell line), 100 μM) of the same compound?
Its viability at 24 h, 100 µM is 47.9 ± 0.01%.

And the viability at 24 h, 150 µM ([2]; Hek293T cells (non-leukemic control cell line), 150 μM)?
Its viability at 24 h, 150 µM is 47.7 ± 0.02%.

And the viability at 24 h, 200 µM ([2]; Hek293T cells (non-leukemic control cell line), 200 μM)?
The viability at 24 h, 200 µM was 47 ± 0.02%.

And the viability at 24 h, 1 µM ([2]; Hek293T cells, 1 μM)?
Its viability at 24 h, 1 µM is 87 ± 0.15%.

And the viability at 0.3 µM (K562; K562, 0.3 μM)?
Its viability at 0.3 µM is 92.5 ± 0.11%.

And the viability at 0.5 µM (K562; K562, 0.5 μM)?
Its viability at 0.5 µM is 91.8 ± 0.06%.

What about the viability at 1 µM (K562; K562, 1 μM) of the same compound?
The viability at 1 µM was 91.8 ± 0.04%.

What about the viability at 3 µM (K562; K562, 3 μM) of the same compound?
The viability at 3 µM was 88.7 ± 0.05%.

And the viability at 5 µM (K562; K562, 5 μM)?
The viability at 5 µM was 87.6 ± 0.05%.

What about the viability at 10 µM (K562; K562, 10 μM) of the same compound?
The viability at 10 µM was 87.3 ± 0.11%.

And the viability at 15 µM (K562; K562, 15 μM)?
Its viability at 15 µM is 87.3 ± 0.1%.

And the viability at 20 µM (K562; K562, 20 μM)?
The viability at 20 µM was 86.5 ± 0.07%.

And the viability at 30 µM (K562; K562, 30 μM)?
The viability at 30 µM was 85.5 ± 0.1%.

What about the viability at 50 µM (K562; K562, 50 μM) of the same compound?
Its viability at 50 µM is 78.1 ± 0.1%.

And the viability at 70 µM (K562; K562, 70 μM)?
Its viability at 70 µM is 68.5 ± 0.05%.

What about the viability at 100 µM (K562; K562, 100 μM) of the same compound?
Its viability at 100 µM is 67.5 ± 0.03%.

And the viability at 150 µM (K562; K562, 150 μM)?
The viability at 150 µM was 67.3 ± 0.02%.

What about the viability at 200 µM (K562; K562, 200 μM) of the same compound?
The viability at 200 µM was 67.2 ± 0.03%.

What about the viability at 0.3 µM (Reh; 0.3 μM) of the same compound?
Its viability at 0.3 µM is 109.5 ± 0.02%.

And the viability at 0.5 µM (Reh; 0.5 μM)?
The viability at 0.5 µM was 105.2 ± 0.02%.

What about the viability at 1 µM (Reh; 1 μM) of the same compound?
The viability at 1 µM was 106.8 ± 0.01%.

And the viability at 3 µM (Reh; 3 μM)?
Its viability at 3 µM is 107.9 ± 0.02%.

And the viability at 5 µM (Reh; 5 μM)?
Its viability at 5 µM is 108.2 ± 0.01%.

What about the viability at 10 µM (Reh; 10 μM) of the same compound?
The viability at 10 µM was 106.9 ± 0.02%.

What about the viability at 15 µM (Reh; 15 μM) of the same compound?
The viability at 15 µM was 106.5 ± 0.02%.

And the viability at 20 µM (Reh; 20 μM)?
Its viability at 20 µM is 97.7 ± 0.02%.

What about the viability at 30 µM (Reh; 30 μM) of the same compound?
Its viability at 30 µM is 88.6 ± 0.03%.

And the viability at 50 µM (Reh; 50 μM)?
Its viability at 50 µM is 85.6 ± 0.02%.

What about the viability at 70 µM (Reh; 70 μM) of the same compound?
The viability at 70 µM was 65.3 ± 0.02%.

What about the viability at 100 µM (Reh; 100 μM) of the same compound?
Its viability at 100 µM is 62.2 ± 0.01%.

What about the viability at 150 µM (Reh; 150 μM) of the same compound?
The viability at 150 µM was 61.3 ± 0.01%.

What about the viability at 200 µM (Reh; 200 μM) of the same compound?
Its viability at 200 µM is 61.1 ± 0.02%.

And the viability at 0.3 µM (Nalm-6; Nalm-6, 0.3 μM, MTT, read-out: Viability rate)?
The viability at 0.3 µM was 100.7 ± 0.01%.

And the viability at 0.5 µM (Nalm-6; Nalm-6, 0.5 μM, MTT, read-out: Viability rate)?
The viability at 0.5 µM was 100.5 ± 0.02%.

What about the viability at 1 µM (Nalm-6; Nalm-6, 1 μM, MTT, read-out: Viability rate) of the same compound?
Its viability at 1 µM is 100.1 ± 0.03%.

And the viability at 3 µM (Nalm-6; Nalm-6, 3 μM, MTT, read-out: Viability rate)?
The viability at 3 µM was 100 ± 0.04%.

And the viability at 5 µM (Nalm-6; Nalm-6, 5 μM, MTT, read-out: Viability rate)?
The viability at 5 µM was 98.8 ± 0.04%.

What about the viability at 10 µM (Nalm-6; Nalm-6, 10 μM, MTT, read-out: Viability rate) of the same compound?
Its viability at 10 µM is 98 ± 0.02%.

And the viability at 15 µM (Nalm-6; Nalm-6, 15 μM, MTT, read-out: Viability rate)?
The viability at 15 µM was 95.6 ± 0.02%.

What about the viability at 20 µM (Nalm-6; Nalm-6, 20 μM, MTT, read-out: Viability rate) of the same compound?
The viability at 20 µM was 82.6 ± 0.02%.

What about the viability at 30 µM (Nalm-6; Nalm-6, 30 μM, MTT, read-out: Viability rate) of the same compound?
The viability at 30 µM was 71.6 ± 0.01%.

And the viability at 50 µM (Nalm-6; Nalm-6, 50 μM, MTT, read-out: Viability rate)?
The viability at 50 µM was 55.2 ± 0.01%.

What about the viability at 70 µM (Nalm-6; Nalm-6, 70 μM, MTT, read-out: Viability rate) of the same compound?
Its viability at 70 µM is 43.5 ± 0.01%.

What about the viability at 100 µM (Nalm-6; Nalm-6, 100 μM, MTT, read-out: Viability rate) of the same compound?
Its viability at 100 µM is 42.6 ± 0.01%.

And the viability at 150 µM (Nalm-6; Nalm-6, 150 μM, MTT, read-out: Viability rate)?
The viability at 150 µM was 42.9 ± 0.01%.

And the viability at 200 µM (Nalm-6; Nalm-6, 200 μM, MTT, read-out: Viability rate)?
The viability at 200 µM was 42.8%.

And the IC50 (Nalm-6; Nalm-6, MTT, range 0.3–200 μM, six replicates)?
The IC50 was 48 µM.
